Columns and labels:
S. aureus DSM 20231 = test: Bliss interaction score (quartile over a dose matrix) (fitness difference); higher = more antagonism (negative = synergy)
How it was run: (§1)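 Quartiles summarise the Bliss score over technical, biological and donor/recipient replicates, where the score is observed minus expected fitness under a product model. Expected fitness uses single-drug values inferred from combination data. Fitness is OD595 at entry into stationary phase over the plate's robust no-drug mean, capped at 1.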

B. subtilis 168 = test: as above
How it was run: as §1

S. pneumoniae D39V [1] = test: as above
How it was run: as §1

S. aureus Newman [2] = test: as above
How it was run: as §1

S. pneumoniae D39V [3] = test: fitness (endpoint OD595 vs no drug) (fraction); higher = more growth
How it was run: (§2)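 In 384-well plates at 37 °C, cultures began at OD595 0.01 in 30 µl, with 55 µl used for S. pneumoniae. OD595 readings every 30 min for 14 h were corrected by the first reading. Fitness divides the stationary-phase transition optical density by the robust mean of no-drug control wells. The result is capped at 1.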

S. aureus Newman [4] = test: as above
How it was run: as §2
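Throughout, for Bliss interaction score (quartile over a dose matrix): first quartile when negative (synergy) and third quartile when positive (antagonism).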

C/C(=C\C(=O)OCCCCCCCCC(=O)O)C[C@@H]1OC[C@H](C[C@@H]2O[C@H]2[C@@H](C)[C@H](C)O)[C@@H](O)[C@H]1O [Pseudomonic acid] + CN(N=O)C(=O)N[C@@H](C=O)[C@@H](O)[C@H](O)[C@H](O)CO [Streptozotocin]
Settings | Bliss interaction score
B. subtilis 168 | 0.105
S. aureus DSM 20231 | -0.011
S. aureus Newman [2] | -0.0211
S. pneumoniae D39V [1] | -0.0598

fitness, S. pneumoniae D39V [3]
Settings | first compound 0.03 µg/mL | first compound 0.06 µg/mL | first compound 0.12 µg/mL
partner 1.2 µg/mL | 0.834 | 0.722 | 0.533
partner 2.4 µg/mL | 0.885 | 0.718 | 0.538
partner 4.8 µg/mL | 0.874 | 0.752 | 0.56

fitness, S. aureus Newman [4], one replicate
Settings | first compound 0.0313 µg/mL | first compound 0.0625 µg/mL | first compound 0.125 µg/mL
partner 0.15 µg/mL | 0.0359 | 0.0417 | 0.0264
partner 0.3 µg/mL | 0.0204 | 0.0023 | 0.0089
partner 0.6 µg/mL | 0.0135 | 0.0039 | 0.0091

C/C(=C\C(=O)OCCCCCCCCC(=O)O)C[C@@H]1OC[C@H](C[C@@H]2O[C@H]2[C@@H](C)[C@H](C)O)[C@@H](O)[C@H]1O [Pseudomonic acid] + CN[C@@H]1[C@H](O)[C@H](NC)[C@H]2O[C@@]3(O)C(=O)C[C@@H](C)O[C@H]3O[C@@H]2[C@H]1O [Spectinomycin]
Settings | Bliss interaction score
B. subtilis 168 | 0.0538
S. aureus DSM 20231 | -0.0116
S. aureus Newman [2] | -0.0301
S. pneumoniae D39V [1] | -0.0665

fitness, S. pneumoniae D39V [3]
Settings | first compound 0.03 µg/mL | first compound 0.06 µg/mL | first compound 0.12 µg/mL
partner 4 µg/mL | 0.899 | 0.87 | 0.564
partner 8 µg/mL | 0.924 | 0.793 | 0.53
partner 16 µg/mL | 0.756 | 0.716 | 0.443

fitness, S. aureus Newman [4], one replicate
Settings | first compound 0.0313 µg/mL | first compound 0.0625 µg/mL | first compound 0.125 µg/mL
partner 4 µg/mL | 0.0277 | 0.0288 | 0.0466
partner 8 µg/mL | 0.0165 | 0.0234 | 0.0364
partner 16 µg/mL | 0.0048 | 0.0214 | 0.0111

C/C(=C\C(=O)OCCCCCCCCC(=O)O)C[C@@H]1OC[C@H](C[C@@H]2O[C@H]2[C@@H](C)[C@H](C)O)[C@@H](O)[C@H]1O [Pseudomonic acid] + CN[C@@H]1[C@H](O[C@H]2[C@H](O[C@H]3[C@H](O)[C@@H](O)[C@H](N=C(N)N)[C@@H](O)[C@@H]3N=C(N)N)O[C@@H](C)[C@]2(O)C=O)O[C@@H](CO)[C@H](O)[C@H]1O [Streptomycin]
Settings | Bliss interaction score
B. subtilis 168 | 0.0523
S. aureus DSM 20231 | -0.013
S. aureus Newman [2] | -0.0275
S. pneumoniae D39V [1] | -0.178

fitness, S. pneumoniae D39V [3]
Settings | first compound 0.03 µg/mL | first compound 0.06 µg/mL | first compound 0.12 µg/mL
partner 2 µg/mL | 0.897 | 0.719 | 0.52
partner 4 µg/mL | 0.903 | 0.708 | 0.491
partner 8 µg/mL | 0.699 | 0.565 | 0.384

fitness, one replicate
Settings | first compound 0.03 µg/mL | first compound 0.0313 µg/mL | first compound 0.06 µg/mL | first compound 0.0625 µg/mL | first compound 0.12 µg/mL | first compound 0.125 µg/mL
S. aureus Newman [4], partner 2 µg/mL | – | 0.0148 | – | 0.0368 | – | 0.0312
S. aureus Newman [4], partner 4 µg/mL | – | 0.0183 | – | 0.0224 | – | 0.0173
S. aureus Newman [4], partner 8 µg/mL | – | 0.0145 | – | 0.0198 | – | 0.0269
S. pneumoniae D39V [3], partner 16 µg/mL | 0.545 | – | 0.439 | – | 0.238 | –

C/C(=C\C(=O)OCCCCCCCCC(=O)O)C[C@@H]1OC[C@H](C[C@@H]2O[C@H]2[C@@H](C)[C@H](C)O)[C@@H](O)[C@H]1O [Pseudomonic acid] + CN[C@H](CC(C)C)C(=O)N[C@H]1C(=O)N[C@@H](CC(N)=O)C(=O)N[C@H]2C(=O)N[C@H]3C(=O)N[C@H](C(=O)N[C@H](C(=O)O)c4cc(O)cc(O)c4-c4cc3ccc4O)[C@H](O)c3ccc(c(Cl)c3)Oc3cc2cc(c3O[C@@H]2O[C@H](CO)[C@@H](O)[C@H](O)[C@H]2O[C@H]2C[C@](C)(N)[C@H](O)[C@H](C)O2)Oc2ccc(cc2Cl)[C@H]1O [Vancomycin]
Settings | Bliss interaction score
B. subtilis 168 | 0.0278
S. aureus DSM 20231 | -0.0086
S. aureus Newman [2] | -0.0276
S. pneumoniae D39V [1] | 0.137

fitness, S. pneumoniae D39V [3]
Settings | partner 0.03125 µg/mL | partner 0.0625 µg/mL | partner 0.125 µg/mL | partner 0.5 µg/mL
first compound 0.03 µg/mL | 0.983 | 0.973 | 0.9 | –
first compound 0.06 µg/mL | 0.873 | 0.865 | – | 0.259
first compound 0.12 µg/mL | 0.641 | 0.611 | – | 0.21

fitness, S. aureus Newman [4], one replicate
Settings | first compound 0.0313 µg/mL | first compound 0.0625 µg/mL | first compound 0.125 µg/mL
partner 0.1875 µg/mL | 0.0232 | 0.0221 | 0.0473
partner 0.375 µg/mL | 0.0206 | 0.0409 | 0.0505
partner 0.75 µg/mL | 0.0349 | 0.053 | 0.0388

C/C(=C\C(=O)OCCCCCCCCC(=O)O)C[C@@H]1OC[C@H](C[C@@H]2O[C@H]2[C@@H](C)[C@H](C)O)[C@@H](O)[C@H]1O [Pseudomonic acid] + COc1ccc(C[C@H](N)C(=O)N[C@H]2[C@@H](O)[C@H](n3cnc4c(N(C)C)ncnc43)O[C@@H]2CO)cc1 [Puromycin]
Settings | Bliss interaction score
B. subtilis 168 | -0.0341
S. aureus DSM 20231 | 0.01
S. aureus Newman [2] | 0.0128
S. pneumoniae D39V [1] | -0.209

fitness, S. pneumoniae D39V [3]
Settings | first compound 0.03 µg/mL | first compound 0.06 µg/mL | first compound 0.12 µg/mL
partner 1 µg/mL | 0.901 | 0.774 | 0.556
partner 2 µg/mL | 0.896 | 0.73 | 0.428
partner 4 µg/mL | 0.735 | 0.491 | 0.246

fitness, S. aureus Newman [4], one replicate
Settings | first compound 0.0313 µg/mL | first compound 0.0625 µg/mL | first compound 0.125 µg/mL
partner 0.39 µg/mL | 0.0558 | 0.0476 | 0.0585
partner 0.78 µg/mL | 0.0593 | 0.043 | 0.0499
partner 1.56 µg/mL | 0.054 | 0.0656 | 0.0613

C/C(=C\C(=O)OCCCCCCCCC(=O)O)C[C@@H]1OC[C@H](C[C@@H]2O[C@H]2[C@@H](C)[C@H](C)O)[C@@H](O)[C@H]1O [Pseudomonic acid] + Cc1cc(NS(=O)(=O)c2ccc(N)cc2)no1 [Sulfamethoxazol]
Settings | Bliss interaction score
B. subtilis 168 | -0.0453
S. aureus DSM 20231 | -0.0246
S. aureus Newman [2] | -0.0317
S. pneumoniae D39V [1] | -0.0659

fitness, S. pneumoniae D39V [3]
Settings | first compound 0.03 µg/mL | first compound 0.06 µg/mL | first compound 0.12 µg/mL
partner 1 µg/mL | 0.907 | 0.784 | –
partner 2 µg/mL | 0.896 | 0.776 | –
partner 4 µg/mL | 0.877 | 0.769 | 0.579

fitness, S. aureus Newman [4], one replicate
Settings | first compound 0.0313 µg/mL | first compound 0.0625 µg/mL | first compound 0.125 µg/mL
partner 1 µg/mL | 0.0339 | 0.0352 | 0.0377
partner 2 µg/mL | 0.0298 | 0.0242 | 0.0254
partner 4 µg/mL | 0.0109 | 0.0216 | 0.0232

C/C(=C\C(=O)OCCCCCCCCC(=O)O)C[C@@H]1OC[C@H](C[C@@H]2O[C@H]2[C@@H](C)[C@H](C)O)[C@@H](O)[C@H]1O [Pseudomonic acid] + Cn1nnc(-c2ccc(-c3ccc(N4C[C@H](CO)OC4=O)cc3F)cn2)n1 [Tedizolid]
Settings | Bliss interaction score
B. subtilis 168 | -0.0611
S. aureus DSM 20231 | 0.0061
S. aureus Newman [2] | 0.011
S. pneumoniae D39V [1] | 0.21

fitness, S. pneumoniae D39V [3]
Settings | partner 0.03125 µg/mL | partner 0.0625 µg/mL | partner 0.125 µg/mL | partner 0.25 µg/mL | partner 0.5 µg/mL
first compound 0.03 µg/mL | 0.963 | 0.965 | 0.82 | 0.777 | –
first compound 0.06 µg/mL | 0.881 | 0.9 | 0.759 | 0.767 | 0.516
first compound 0.12 µg/mL | 0.925 | 0.923 | 0.707 | 0.587 | 0.382

fitness, S. aureus Newman [4], one replicate
Settings | first compound 0.0313 µg/mL | first compound 0.0625 µg/mL | first compound 0.125 µg/mL
partner 0.0625 µg/mL | 0.0219 | 0.0311 | 0.031
partner 0.125 µg/mL | 0.0244 | 0.0131 | 0.0219
partner 0.25 µg/mL | 0.0038 | 0.0239 | 0.018

CCCCCCCCCC(=O)N[C@H]1[C@H](Oc2c3cc4cc2Oc2ccc(cc2Cl)[C@@H](O[C@@H]2O[C@H](CO)[C@@H](O)[C@H](O)[C@H]2NC(C)=O)[C@@H]2NC(=O)[C@H](NC(=O)[C@@H]4NC(=O)[C@H]4NC(=O)[C@@H](Cc5ccc(c(Cl)c5)O3)NC(=O)[C@H](N)c3ccc(O)c(c3)Oc3cc(O)cc4c3)c3ccc(O)c(c3)-c3c(O[C@H]4O[C@H](CO)[C@@H](O)[C@H](O)[C@@H]4O)cc(O)cc3[C@@H](C(=O)O)NC2=O)O[C@H](CO)[C@@H](O)[C@@H]1O [Teicoplanin] + CN(C)c1cc(NC(=O)CNC(C)(C)C)c(O)c2c1C[C@H]1C[C@H]3[C@H](N(C)C)C(O)=C(C(N)=O)C(=O)[C@@]3(O)C(O)=C1C2=O [Tigecycline]
main component drawn
Settings | Bliss interaction score
B. subtilis 168 | 0.123
S. aureus DSM 20231 | 0.108
S. aureus Newman [2] | 0.0513
S. pneumoniae D39V [1] | 0.0619

fitness, S. aureus Newman [4], main component drawn
Settings | first compound 0.1562 µg/mL | first compound 0.3125 µg/mL | first compound 0.625 µg/mL
partner 0.039 µg/mL | ≥ 1 | 0.98 | ≥ 1
partner 0.078 µg/mL | ≥ 1 | 0.963 | ≥ 1
partner 0.156 µg/mL | ≥ 1 | ≥ 1 | ≥ 1

fitness, S. aureus Newman [4], one replicate, main component drawn
Settings | first compound 0.62 µg/mL | first compound 1.24 µg/mL | first compound 2.48 µg/mL
partner 0.039 µg/mL | 0.757 | 0.736 | 0.456
partner 0.078 µg/mL | 0.754 | 0.746 | 0.453
partner 0.156 µg/mL | 0.813 | 0.756 | 0.427

Source: the supplement of paper PMC10627819
